Results on 5 compounds are retold here after patent US20050176760A1, “N-'4-(2-imino-pyrrolidin-1-yl)phenyl!-acetamide and corresponding piperidine derivatives as factor xa inhibitors for the treatment of thrombo-embolic diseases” (Merck Patent GmbH, priority 2002, published 2005).

One test deals with FXa (Homo sapiens, UniProt P00742). In words: Factor Xa inhibition (FXa-IC50). It is filed as biochemical. The settings on record: Table 1, pharmacological data, 'Affinity to receptors'. The text has this: The inhibition of factor Xa by the compounds according to the invention and the measurement of the anticoagulant and antithrombotic activity can be determined by conventional in-vitro or in-vivo methods. A suitable method is described, for example, by J. Hauptmann et al. in Thrombosis and Haemostasis 1990, 63, 220-223.
The inhibition of factor Xa can be measured, for example by the method of T. Hara et al. in Thromb. Haemostas. 1994, 71, 314-319.

For a further test, the target named is TF/FVIIa (Homo sapiens, UniProt P08709). In words: TF/factor VIIa inhibition (TF/FVIIa-IC50). The note with it: Table 1, pharmacological data, 'Affinity to receptors'. The format is biochemical. From the text: The inhibition of factor Vila by the compounds according to the invention and the measurement of the anticoagulant and antithrombotic activity can be determined by conventional in-vitro or in-vivo methods. A conventional method for the measurement of the inhibition of factor VIIa is described, for example, by H. F. Ronning et al. in Thrombosis Research 1996, 84, 73-81.
TF/FVIIa, sequence (P08709 213-466 limits assumed): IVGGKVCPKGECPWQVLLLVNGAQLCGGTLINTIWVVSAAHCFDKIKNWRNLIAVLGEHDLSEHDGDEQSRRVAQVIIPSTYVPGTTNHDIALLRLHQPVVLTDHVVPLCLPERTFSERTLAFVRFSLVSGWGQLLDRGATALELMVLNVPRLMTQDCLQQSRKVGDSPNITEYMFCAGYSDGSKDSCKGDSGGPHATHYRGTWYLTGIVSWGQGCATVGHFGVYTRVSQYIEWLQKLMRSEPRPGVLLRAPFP
TF/FVIIa, sequence (P08709 61-212 limits assumed): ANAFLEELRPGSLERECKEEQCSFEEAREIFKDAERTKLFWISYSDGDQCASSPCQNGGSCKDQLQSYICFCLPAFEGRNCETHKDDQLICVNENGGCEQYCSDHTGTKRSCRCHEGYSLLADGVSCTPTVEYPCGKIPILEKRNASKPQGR
TF/FVIIa, sequence (P13726 33-295 partner): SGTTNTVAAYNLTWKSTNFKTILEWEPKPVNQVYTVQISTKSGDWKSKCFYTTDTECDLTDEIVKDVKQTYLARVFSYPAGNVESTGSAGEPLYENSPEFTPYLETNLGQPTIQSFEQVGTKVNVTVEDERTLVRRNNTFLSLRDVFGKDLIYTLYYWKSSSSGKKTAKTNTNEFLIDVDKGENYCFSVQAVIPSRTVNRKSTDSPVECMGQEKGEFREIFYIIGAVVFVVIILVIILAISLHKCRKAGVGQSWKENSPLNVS

FXa, sequence (P00742 235-488 limits assumed): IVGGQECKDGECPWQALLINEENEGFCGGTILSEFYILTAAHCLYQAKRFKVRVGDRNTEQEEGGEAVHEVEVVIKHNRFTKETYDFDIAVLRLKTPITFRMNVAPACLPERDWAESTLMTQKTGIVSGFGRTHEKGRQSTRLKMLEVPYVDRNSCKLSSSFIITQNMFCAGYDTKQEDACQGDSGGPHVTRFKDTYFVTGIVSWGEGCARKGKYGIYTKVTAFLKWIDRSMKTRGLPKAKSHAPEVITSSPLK
FXa, sequence (P00742 41-179 limits assumed): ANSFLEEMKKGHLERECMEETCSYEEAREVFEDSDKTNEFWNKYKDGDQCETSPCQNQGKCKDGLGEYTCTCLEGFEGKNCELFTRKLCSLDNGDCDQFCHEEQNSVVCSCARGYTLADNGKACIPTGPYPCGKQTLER

Usually IC50 stands for the concentration that inhibits the measured activity by half. For `NCc1cccc(NC(C(=O)Nc2ccc(N3CCCC3=NO)c(Cl)c2)c2ccccc2)c1` (racemic) [AA, (R, S)-2-(3-aminomethylphenylamino)-N-[3-chloro-4-(2-hydroxyiminopyrrolidin-1-yl)phenyl]-2-phenylacetamide], the IC50 at FXa came out at 220 nM; against TF/FVIIa, 290 nM.

With `N=C1CCCN1c1ccc(NC(=O)C(Nc2cccc(CN)c2)c2ccccc2)cc1Cl` (racemic) [AB, (R, S)-2-(3-aminomethylphenylamino)-N-[3-chloro-4-(2-iminopyrrolidin-1-yl)phenyl]-2-phenylacetamide], the IC50 against FXa worked out at 58 nM; against TF/FVIIa, 99 nM.

For `CON=C1CCCCN1c1ccc(NC(=O)[C@H](CC(C)C)Oc2ccc3ccnc(N)c3c2)cc1` (single isomer, unassigned) [BA], the IC50 on FXa turned out to be 680 nM; on TF/FVIIa, 490 nM.

Consider `CC(C)C[C@H](Oc1ccc2ccnc(N)c2c1)C(=O)Nc1ccc(N2CCCCC2=N)cc1` [BB, (S)-2-(1-aminoisoquinolin-7-yloxy)-N-[4-(2-iminopiperidin-1-yl)phenyl]-4-methylvaleramide], for which the half-inhibitory concentration (IC50) at FXa came to 2700 nM; against TF/FVIIa, 2000 nM.

Turning to `Cc1cc(NC(=O)C(Nc2cccc(CN)c2)c2ccccc2Cl)ccc1N1CCCC1=NCCN(C)C` (stereo not shown) [DA, 2-(3-aminomethylphenylamino)-N-[3-methyl-4-(2-(2-dimethylaminoethylimino)pyrrolidin-1-yl)phenyl]-2-(2-chloro)phenyl-acetamide], the IC50 against FXa stood at 66 nM; against TF/FVIIa, 130 nM.
